Laboratory results reported in publication PMC10702309 (ACS Omega, 2023).
“Also recorded” adds a separate entry of the source. Like-named read-outs stand apart in the source and are kept apart here.

Experiments:
jack bean urease [1] = target: T1, jack bean urease (Canavalia ensiformis, UniProt P07374); test: Antiurease assay; assay type: biochemical; details: for % inhibition (urease): inhibitor concentration not given
jack bean urease [2] = target: T1, jack bean urease; test: Enzyme kinetic studies; assay type: biochemical; details: for Vmax (app): at an inhibitor concentration of 20 μM; for mode of inhibition: urease, Lineweaver–Burk plots

T1 sequence (P07374 whole entry, looked up): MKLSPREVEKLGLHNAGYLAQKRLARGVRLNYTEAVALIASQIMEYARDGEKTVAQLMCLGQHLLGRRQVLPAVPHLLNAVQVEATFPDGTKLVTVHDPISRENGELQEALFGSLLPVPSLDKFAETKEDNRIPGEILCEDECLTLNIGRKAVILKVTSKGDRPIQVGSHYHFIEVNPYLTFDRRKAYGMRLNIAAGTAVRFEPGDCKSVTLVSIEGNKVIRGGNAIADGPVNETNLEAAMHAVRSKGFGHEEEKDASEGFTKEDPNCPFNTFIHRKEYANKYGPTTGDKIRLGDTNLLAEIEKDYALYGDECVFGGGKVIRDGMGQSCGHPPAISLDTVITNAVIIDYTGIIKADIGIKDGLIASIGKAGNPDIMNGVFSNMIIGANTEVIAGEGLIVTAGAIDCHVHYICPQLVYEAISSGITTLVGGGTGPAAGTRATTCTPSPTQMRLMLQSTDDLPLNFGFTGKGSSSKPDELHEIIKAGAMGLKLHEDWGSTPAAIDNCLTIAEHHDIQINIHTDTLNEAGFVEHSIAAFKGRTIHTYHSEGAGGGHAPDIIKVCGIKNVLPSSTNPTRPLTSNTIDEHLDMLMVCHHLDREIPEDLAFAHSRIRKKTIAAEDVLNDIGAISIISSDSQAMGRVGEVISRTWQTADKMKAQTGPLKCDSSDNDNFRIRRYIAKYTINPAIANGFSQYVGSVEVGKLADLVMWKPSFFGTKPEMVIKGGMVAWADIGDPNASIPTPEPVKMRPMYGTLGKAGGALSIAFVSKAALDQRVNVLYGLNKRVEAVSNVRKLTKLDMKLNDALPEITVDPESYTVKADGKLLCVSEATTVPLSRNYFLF

Structure (SMILES)	IC50 (jack bean urease [1])	% inhibition (urease) (jack bean urease [1]; jack bean urease)	Ki (jack bean urease [2])	Vmax (app) (jack bean urease [2])	mode of inhibition (jack bean urease [2])	IC50 (jack bean urease [1]; read-out: IC50 (μM), mean ± SEM, jack bean urease, mean ± SEM)	Ki (jack bean urease [2]; read-out: Ki (inhibition constant), calculated from secondary Lineweaver–Burk plots)
Cc1noc(NS(=O)(=O)c2ccc(NC(=O)Cc3ccccc3Nc3c(Cl)cccc3Cl)cc2)c1C [conjugate 5, 2-(2-((2,6-Dichlorophenyl)amino)phenyl)-N-(4-(N-(3,4-dimethylisoxazol-5-yl)sulfamoyl)phenyl)acetamide]	23.1 ± 0.49 µM	73.4%	–	–	–	–	–
O=C(Cc1ccccc1Nc1c(Cl)cccc1Cl)Nc1ccc(S(=O)(=O)Nc2nccs2)cc1 [conjugate 6, 2-(2-((2,6-Dichlorophenyl)amino)phenyl)-N-(4-(N-(thiazol-2-yl)sulfamoyl)phenyl)acetamide]	16.2 ± 0.21 µM	71.3%	16.3 µM	0.755 µM/min	mixed	–	–
O=C(Cc1ccccc1Nc1c(Cl)cccc1Cl)Nc1ccc(S(=O)(=O)Nc2ncccn2)cc1 [conjugate 7, 2-(2-((2,6-Dichlorophenyl)amino)phenyl)-N-(4-(N-(pyrimidin-2-yl)sulfamoyl)phenyl)acetamid]	30.49 ± 0.28 µM	83.6%	–	–	–	–	–
Cc1ccnc(NS(=O)(=O)c2ccc(NC(=O)Cc3ccccc3Nc3c(Cl)cccc3Cl)cc2)n1 [conjugate 8, 2-(2-((2,6-Dichlorophenyl)amino)phenyl)-N-(4-(N-(4-methylpyrimidin-2-yl)sulfamoyl)phenyl)acetamide]	9.5 ± 0.28 µM	85.9%	10.8 µM	2.27 µM/min	mixed	–	–
Cc1cc(NS(=O)(=O)c2ccc(NC(=O)Cc3ccccc3Nc3c(Cl)cccc3Cl)cc2)no1 [conjugate 9, 2-(2-((2,6-Dichlorophenyl)amino)phenyl)-N-(4-(N-(5-methylisoxazol-3-yl)sulfamoyl)phenyl)acetamide]	33.34 ± 0.21 µM	77.3%	–	–	–	–	–
CC(=O)NS(=O)(=O)c1ccc(NC(=O)Cc2ccccc2Nc2c(Cl)cccc2Cl)cc1 [conjugate 10, N-(4-(N-Acetylsulfamoyl)phenyl)-2-(2-((2,6-dichlorophenyl)amino)phenyl)acetamide]	5.49 ± 0.34 µM	84.5%	2.73 µM	3.46 µM/min	competitively; also recorded: competitive	–	–
N=C(N)NS(=O)(=O)c1ccc(NC(=O)Cc2ccccc2Nc2c(Cl)cccc2Cl)cc1 [conjugate 11, N-(4-(N-Carbamimidoylsulfamoyl)phenyl)-2-(2-((2,6-dichlorophenyl)amino)phenyl)acetamide]	4.35 ± 0.23 µM	78.7%	1.09 µM	1.11 µM/min	mixed	–	–
Cc1cccc(Nc2ccccc2C(=O)Nc2ccc(S(N)(=O)=O)cc2)c1C [conjugate 12, 2-((2,3-Dimethylphenyl)amino)-N-(4-sulfamoylphenyl)benzamide]	18.7 ± 0.21 µM	91.6%	3.06 µM	8.62 µM/min	competitively; also recorded: competitive	–	–
Cc1cccc(Nc2ccccc2C(=O)Nc2ccc(S(=O)(=O)Nc3onc(C)c3C)cc2)c1C [conjugate 13, N-(4-(N-(3,4-Dimethylisoxazol-5-yl)sulfamoyl)phenyl)-2-((2,3-dimethylphenyl)amino)benzamide]	15.9 ± 0.25 µM	94.1%	4.82 µM	3.03 µM/min	mixed	–	–
Cc1cccc(Nc2ccccc2C(=O)Nc2ccc(S(=O)(=O)Nc3nccs3)cc2)c1C [conjugate 14, 2-((2,3-Dimethylphenyl)amino)-N-(4-(N-(thiazol-2-yl)sulfamoyl)phenyl)benzamide]	14.8 ± 0.27 µM	82.9%	1.65 µM	2.28 µM/min	mixed	–	–
Cc1cccc(Nc2ccccc2C(=O)Nc2ccc(S(=O)(=O)Nc3ncccn3)cc2)c1C [conjugate 15, 2-((2,3-Dimethylphenyl)amino)-N-(4-(N-(pyrimidin-2-yl)sulfamoyl)phenyl)benzamide]	7.92 ± 0.27 µM	84.9%	1.04 µM	6.36 µM/min	mixed	–	–
Cc1ccnc(NS(=O)(=O)c2ccc(NC(=O)c3ccccc3Nc3cccc(C)c3C)cc2)n1 [conjugate 16, 2-((2,3-Dimethylphenyl)amino)-N-(4-(N-(4-methylpyrimidin-2-yl)sulfamoyl)phenyl)benzamide]	94.99 ± 0.22 µM	68.3%	–	–	–	–	–
Cc1cc(NS(=O)(=O)c2ccc(NC(=O)c3ccccc3Nc3cccc(C)c3C)cc2)no1 [conjugate 17, 2-((2,3-Dimethylphenyl)amino)-N-(4-(N-(5-methylisoxazol-3-yl)sulfamoyl)phenyl)benzamide]	8.35 ± 0.26 µM	–	0.46 µM	8.54 µM/min	competitively; also recorded: competitive	–	–
CC(=O)NS(=O)(=O)c1ccc(NC(=O)c2ccccc2Nc2cccc(C)c2C)cc1 [conjugate 18, N-(4-(N-Acetylsulfamoyl)phenyl)-2-((2,3-dimethylphenyl)amino)benzamide]	36.08 ± 0.28 µM	64.1%	–	–	–	–	–
Cc1cccc(Nc2ccccc2C(=O)Nc2ccc(S(=O)(=O)NC(=N)N)cc2)c1C [conjugate 19, N-(4-(N-Carbamimidoylsulfamoyl)phenyl)-2-((2,3-dimethylphenyl)amino)benzamide]	31.32 ± 0.29 µM	79.2%	–	–	–	–	–
NC(N)=S [thiourea, reference compound]	–	92.3%	–	18.61 µM/min	competitive	22.6 ± 0.23 µM	18.2 µM
